# In patent US8518876B2, “Composition for long-acting peptide analogs” (Pharmaln Corporation, priority 2007, dated 2013):
# “Also recorded” adds a separate entry of the source. Where a SMILES comes first, the peptide text is derived from it. Bridges are numbered along the chain shown (N, C = ends). The star is where a group is joined. Lauroyl = CCCCCCCCCCCC(=O)*
# Columns and labels:
# [1] = Solubility in water of the synthesized peptide; type: physicochemical; settings: in words
# [2] = test system: human umbilical chord artery endothelial cells (HUAEC); test: Ca-influx after vasopressin analog stimulation of HUAEC, samples pre-incubated in human serum; type: cell-based; design: key to Activity of Various Vasopressin Analogs, 0 h / Activity of Various Vasopressin Analogs, 1 h / Activity of Various Vasopressin Analogs, 2 h / Activity of Various Vasopressin Analogs, 4 h: “−” for no detectable activity; “+” to “+++” for slight to high activity; “+” to “+++” for slight to high activity; “+” to “+++” for slight to high activity
# Excerpt: Ca-influx after vasopressin analog stimulation of human umbilical chord artery endothelial cells (HUAEC) was used to test the biological activity of the various vasopressin analogs. The material used were: 75 cm^2 tissue culture flasks, BD Bioscience, Bedford Mass. (catalogue number 137787) with 0.2 μm vented blue plug seal caps (catalogue number 353136); human umbilical artery endothelial cells (HUAEC), Lonza, Walkersville, Md. (catalogue number CC-2520); EGM-2 fully supplement medium, Lonza, Walkersville, Md. (catalogue number CC-3162); Fura-2 AM, Invitrogen/Molecular Probes, Carlsbad, Calif. (catalogue number F-1221) (Fura-2 AM is a high affinity, intracellular calcium indicator that is ratiometric and UV light-excitable; the acetoxymethyl (AM) ester form is useful for noninvasive intracellular loading as it is cell permeable. Once inside the cell the ester is clipped which renders the Fura-2 molecule cell impermeable and therefore trapped inside.); terlipressin derivatives custom made by Anaspec, San Jose Calif., according to inventors specifications; pooled human serum, Sigma, St. Louis, Mo. (catalogue number H4522); phosphate buffered saline (PBS), Fisher Scientific, Fair Lawn, N.J. (catalogue number BP399-500); trypsin-EDTA solution, 0.25%, Invitrogen/Gibco, Carlsbad, Calif. (catalogue number 25200-072); heat inactivated fetal bovine serum (FBS), Invitrogen/Gibco, Carlsbad, Calif. (catalogue number 10438-026); black polystyrene 96 well flat-bottom assay plates, Corning Inc., Corning, N.Y. (catalogue number 3916); Chameleon plate multilabel detection reader, Hidex, Turku, Finland, distributed by Bioscan, Washington, D.C.; dimethyl sulfoxide (DMSO), Fisher Scientific, Fair Lawn, N.J. (catalogue number D-136-1).
# The methods used for tissue or cell culture are as follows: a vial of HUAEC (>0.5×10^6 cells) was thawed and seeded in two 75 cm^2 flasks with 15 ml EGM-2 medium each. Cells were grown over night and medium was changed. Media in the flasks were changed on a Monday, Wednesday, Friday schedule. Cells were split at approximately 80% confluency (using trypsin). Media were removed and the flasks were washed with 10 ml 1×PBS. The PBS was removed, 1.5 ml trypsin-EDTA solution was added and incubated for 5 min at 37° C. Three ml of FBS added and the cells were counted. The cells were centrifuged at 200×G for 5 min, resuspended in EGM-2 medium and distributed into new 75 cm2 flasks @ 3000-5000 cells per cm2.
# To prepare for the Ca2+-influx assay, cells were distributed into one black 96 well plate @ 10^5 cells/well. Cells were allowed to adhere overnight and the medium was then removed. Fifty μg Fura-2 was dissolved in 50 μl DMSO and added to 10 ml PBS/2% FBS. The cells were stained with 20 μl of 5 μg/ml Fura-2 in PBS/2% FBS for 2 h, then 180 μl EGM-2 medium supplemented with CaCl2 and glucose was added (10 mM CaCl2 and 11.1 mM glucose final concentrations).
# To prepare analogs for testing, 50 uM terlipressin (or derivative) stock solution in DMSO was prepared. […] (placed on ice after incubation).
# To measure Ca-influx, Fura-2 fluorescence was measured for 4 repetitions per well at 340 nm ex/510 nm em and 420 nm ex/510 nm em (4 measurement before and 16 after injection of drug. At t=12 sec, 20 μl of terlipressin or derivative was injected as a 500 nM solution (or serum) for a final concentration of 50 nM per well. Fura-2 fluorescence was measured for […] per well at 340 nm ex/510 nm em and 420 nm ex/510 nm em (4 measurements before and 16 after injection of drug). The controls included injected human serum alone, and terlipressin or derivative dissolved in PBS as […]. All measurements were done in hexuplicate.
# Data analysis was done using Graphpad Prism version 5.0 software (Graphpad software Inc, San Diego, Calif.). […]
compound,measurement,setting,value
"CCCCCCCCCCCC(=O)NCC(=O)NCC(=O)NCC(=O)N[C@H]1CSSC[C@@H](C(=O)N2CCC[C@H]2C(=O)N[C@@H](CCCCN)C(=O)NCC(N)=O)NC(=O)[C@H](CC(N)=O)NC(=O)[C@H](CCC(N)=O)NC(=O)[C@H](Cc2ccccc2)NC(=O)[C@H](Cc2ccc(O)cc2)NC1=O [C12TerA, CH3(CH2)10CO-Gly-Gly-Gly-Cys-Tyr-Phe-Gln-Asn-Cys-Pro-Lys-Gly-NH2] (Lauroyl-GGGCYFQNCPKG-NH2; disulfide 4-9)",solubility in water,[1],limited solubility in water
same,"Activity of Various Vasopressin Analogs, 0 h","[2]; 0 h pre-incubation in pooled human serum at 37° C. (serum present), Ca-influx in HUAEC, 50 nM per well",+++
same,"Activity of Various Vasopressin Analogs, 1 h","[2]; 1 h pre-incubation in pooled human serum at 37° C., Ca-influx in HUAEC, 50 nM per well",+++
same,"Activity of Various Vasopressin Analogs, 2 h","[2]; 2 h pre-incubation in pooled human serum at 37° C., Ca-influx in HUAEC, 50 nM per well",+++
same,"Activity of Various Vasopressin Analogs, 4 h","[2]; 4 h pre-incubation in pooled human serum at 37° C., Ca-influx in HUAEC, 50 nM per well",+++
same,calcium influx after 2-hour incubation in human serum,"[2]; FIG. 11, Fura-2 fluorescence, in words",able to induce calcium influx; also recorded: pronounced calcium influx
